Like-named read-outs stand apart in the source and are kept apart here.
Legend:
[1] = biological target: GSK3α (GST-full length GSK3α) (Homo sapiens (Human), UniProt P49840); assay: GSK3α TR-FRET kinase assay; assay type: biochemical
Outline: (§1)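 1 nM GST-GSK3α/β + cpd, 30 min preinc; add 200 nM biotin-pS645 GS(631-650) peptide + ATP (α 4 μM / β 2 μM, or 1 mM); 100 min RT, 50 mM Tris pH 7.5, 20 mM MgCl2, 1% DMSO; EDTA stop; SA-d2/Tb-pSer641 Ab 60 min; 665/615 ratio → IC50.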

[2] = biological target: GSK3b (GST-full length GSK3b) (Homo sapiens (Human), UniProt P49841); assay: GSK3b TR-FRET kinase assay; assay type: biochemical
Sequence of GSK3b (GST-full length GSK3b) (P49841 whole entry): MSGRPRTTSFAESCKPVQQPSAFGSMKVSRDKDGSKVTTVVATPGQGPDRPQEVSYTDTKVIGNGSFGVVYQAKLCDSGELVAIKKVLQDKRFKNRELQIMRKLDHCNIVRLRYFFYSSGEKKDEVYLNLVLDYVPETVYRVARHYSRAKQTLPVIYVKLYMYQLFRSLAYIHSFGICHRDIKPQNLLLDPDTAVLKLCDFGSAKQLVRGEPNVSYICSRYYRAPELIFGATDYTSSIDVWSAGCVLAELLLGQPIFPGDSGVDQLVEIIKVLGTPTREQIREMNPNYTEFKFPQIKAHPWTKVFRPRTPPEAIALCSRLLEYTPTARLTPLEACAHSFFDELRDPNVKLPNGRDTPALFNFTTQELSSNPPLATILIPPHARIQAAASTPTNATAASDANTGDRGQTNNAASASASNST
Outline: as §1

[3] = 1 nM GSK3α, 4 μM ATP, 30 minute preincubation, Table 16, read-out: GSK3-A TR-FRET BIOCHEMICAL (TR-FRET), IC50
[4] = 1 nM GSK3b, 2 μM ATP, 30 minute preincubation, Table 16, read-out: GSK3-B TR-FRET BIOCHEMICAL (TR-FRET), IC50
[5] = 1 nM GSK3α, 4 μM ATP, 30 minute preincubation, Table 16, read-out: GSK3-A TR-FRET BIOCHEMICAL (TR-FRET)
[6] = 1 nM GSK3b, 2 μM ATP, 30 minute preincubation, Table 16, read-out: GSK3-B TR-FRET BIOCHEMICAL (TR-FRET)
[7] = 1 nM GSK3α, 4 μM ATP, 30 minute preincubation, read-out: GSK3-A TR-FRET BIOCHEMICAL (TR-FRET), IC50
[8] = 1 nM GSK3b, 2 μM ATP, 30 minute preincubation, read-out: GSK3-B TR-FRET BIOCHEMICAL (TR-FRET), IC50
[9] = read-out: GSK3-A (TR-FRET 1 mM ATP), GMean, IC50, 1 mM ATP, geometric mean
[10] = read-out: GSK3-B (TR-FRET 1 mM ATP), GMean, IC50, 1 mM ATP, geometric mean

Sequence of GSK3α (GST-full length GSK3α) (P49840 whole entry): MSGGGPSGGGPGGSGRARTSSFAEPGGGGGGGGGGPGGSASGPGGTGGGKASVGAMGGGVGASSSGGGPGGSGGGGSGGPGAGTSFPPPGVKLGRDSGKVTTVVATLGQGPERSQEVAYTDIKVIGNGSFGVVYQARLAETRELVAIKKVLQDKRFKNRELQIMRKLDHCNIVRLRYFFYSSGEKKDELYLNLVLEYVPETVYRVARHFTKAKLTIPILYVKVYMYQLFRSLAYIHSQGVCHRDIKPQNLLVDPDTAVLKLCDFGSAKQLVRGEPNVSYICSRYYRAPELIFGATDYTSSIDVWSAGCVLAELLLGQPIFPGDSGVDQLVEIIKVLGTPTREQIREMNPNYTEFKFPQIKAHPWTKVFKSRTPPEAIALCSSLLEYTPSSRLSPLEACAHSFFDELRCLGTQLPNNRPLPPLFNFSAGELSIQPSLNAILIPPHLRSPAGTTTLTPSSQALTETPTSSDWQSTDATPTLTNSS

IC50 [1, 3] [nM]	IC50 [2, 4] [nM]	Compound	also measured
> 5000	> 5000	C[C@@H]1COCC[C@]12C1=C(CC(C)(C)CC1=O)Nc1n[nH]cc12 [Compound 924310]	–
100 to 1000	1000 to 5000	CC[C@H]1C[C@]2(CCO1)C1=C(CC(C)(C)CC1=O)Nc1n[nH]cc12 [Compound 924311]	–
100 to 1000	100 to 1000	CCC1(c2cccc(N3CC(C)C(C)C3)c2)C2=C(CC(C)(C)CC2=O)Nc2n[nH]cc21 (centres unmarked) [Compound 924504]	–
> 5000	> 5000	CC[C@]1(c2cccc(N3C[C@H](C)[C@@H](C)C3)c2)C2=C(CC(C)(C)CC2=O)Nc2n[nH]cc21 [Compound 924520]	–
–	–	CC[C@@H]1C[C@@]2(CCO1)C1=C(CC(C)(C)CC1=O)Nc1n[nH]cc12 [Compound 924715]	IC50 [1, 5]: ≤ 100 nM; IC50 [2, 6]: 100 to 1000 nM
100 to 1000	1000 to 5000	CCC1(c2cccc(N(C)c3nc(C)cc(C)n3)c2)C2=C(CC(C)(C)CC2=O)Nc2n[nH]cc21 (centres unmarked) [Compound 926304]	–
–	–	CC1(C)CC(=O)C2=C(C1)Nc1n[nH]cc1C21COC2(CN(S(C)(=O)=O)C2)C1 (centres unmarked) [Compound 926808]	IC50 [1, 7]: ≤ 100 nM; IC50 [2, 8]: ≤ 100 nM
–	–	C[C@H]1C[C@@]2(CCN1S(=O)(=O)c1ccn(C)n1)C1=C(CC(C)(C)CC1=O)Nc1n[nH]cc12 [Compound 926815]	IC50 [1, 5]: ≤ 100 nM; IC50 [2, 6]: ≤ 100 nM
–	–	CC1(C)CC(=O)C2=C(C1)Nc1n[nH]cc1[C@]21COC2(CN(S(C)(=O)=O)C2)C1 [Compound 926823]	IC50 [1, 7]: 100 to 1000 nM; IC50 [2, 8]: 1000 to 5000 nM
–	–	C[C@H]1C[C@]2(CCN1S(C)(=O)=O)C1=C(CC(C)(C)CC1=O)Nc1n[nH]cc12 [Compound 926827]	IC50 [1, 5]: ≤ 100 nM; IC50 [2, 6]: ≤ 100 nM
–	–	C[C@H]1C[C@]2(CCN1S(=O)(=O)c1ccn(C)n1)C1=C(CC(C)(C)CC1=O)Nc1n[nH]cc12 [Compound 926832]	IC50 [1, 5]: ≤ 100 nM; IC50 [2, 6]: 100 to 1000 nM
≤ 100	100 to 1000	CCC1(c2cccc(-c3cnn4c3CCCC4)c2)C2=C(CC(C)(C)CC2=O)Nc2n[nH]cc21 (centres unmarked) [Compound 926836]	–
≤ 100	≤ 100	CCC1(c2cccc(-c3cn(C)nc3C)c2)C2=C(CC(C)(C)CC2=O)Nc2n[nH]cc21 (centres unmarked) [Compound 926840]	–
≤ 100	100 to 1000	CCC1(c2cccc(-c3cnnc(C)c3)c2)C2=C(CC(C)(C)CC2=O)Nc2n[nH]cc21 (centres unmarked) [Compound 926844]	–
–	–	CC(=O)N1CC2(C1)C[C@]1(CO2)C2=C(CC(C)(C)CC2=O)Nc2n[nH]cc21 [Compound 926861]	IC50 [1, 7]: ≤ 100 nM; IC50 [1, 9]: ≤ 100 nM; IC50 [2, 8]: ≤ 100 nM; IC50 [2, 10]: ≤ 100 nM
–	–	CC(=O)N1CC2(C1)C[C@@]1(CO2)C2=C(CC(C)(C)CC2=O)Nc2n[nH]cc21 [Compound 926872]	IC50 [1, 7]: 100 to 1000 nM; IC50 [2, 8]: 100 to 1000 nM
–	–	CCC1(c2cccc(-c3ccnc(C)c3)c2)C2=C(CC(C)(C)NC2=O)Nc2n[nH]cc21 (centres unmarked) [Compound 927325]	IC50 [1, 7]: ≤ 100 nM; IC50 [1, 9]: 100 to 1000 nM; IC50 [2, 8]: 100 to 1000 nM; IC50 [2, 10]: > 5000 nM
1000 to 5000	> 5000	CCC1(c2cccc(-c3cc(C)ncc3F)c2)C2=C(CC(C)(C)CC2=O)Nc2n[nH]cc21 (centres unmarked) [Compound 927339]	–
> 5000	> 5000	CC[C@@]1(c2cccc(-c3ccnc(C)c3F)c2)C2=C(CC(C)(C)CC2=O)Nc2n[nH]c(C)c21 [Compound 927340]	–
1000 to 5000	1000 to 5000	CCC1(c2cccc(NS(C)(=O)=O)c2)C2=C(CC(C)(C)CC2=O)Nc2n[nH]cc21 (centres unmarked) [Compound 927341]	–
≤ 100	≤ 100	CCC1(c2cccc(-c3ccnnc3)c2)C2=C(CC(C)(C)CC2=O)Nc2n[nH]cc21 (centres unmarked) [Compound 927342]	–
–	–	CC1(C)CC(=O)C2=C(C1)Nc1n[nH]cc1C21CCCS(=O)(=O)CC1 (centres unmarked) [Compound 927343]	IC50 [1, 5]: ≤ 100 nM; IC50 [2, 6]: 100 to 1000 nM
≤ 100	≤ 100	CCC1(c2cccc(S(=O)(=O)C3CCOCC3)c2)C2=C(CC(C)(C)CC2=O)Nc2n[nH]cc21 (centres unmarked) [Compound 927344]	–
≤ 100	≤ 100	CCC1(c2cccc(-c3cc(C)ncc3F)c2)C2=C(CC(C)(C)CC2=O)Nc2n[nH]cc21 (centres unmarked) [Compound 927346]	IC50 [1, 9]: ≤ 100 nM; IC50 [2, 10]: 1000 to 5000 nM
–	–	CC[C@]1(c2cccc(-c3ccnn3C)c2)C2=C(CC(C)(C)NC2=O)Nc2n[nH]cc21 [Compound 927390]	IC50 [1, 7]: 100 to 1000 nM; IC50 [2, 8]: > 5000 nM
≤ 100	≤ 100	CCC1(c2cccc(N(C)c3nccc(OC)n3)c2)C2=C(CC(C)(C)CC2=O)Nc2n[nH]cc21 (centres unmarked) [Compound 929387]	–

IC50 [1, 3] [nM]	IC50 [2, 4] [nM]	Compound	also measured
–	–	CCC1(c2cccc(C(F)(F)F)c2)C2=C(CN(Cc3ccccc3)C2=O)Nc2n[nH]cc21 (centres unmarked) [Compound 929388]	IC50 [1, 9]: 100 to 1000 nM; IC50 [2, 6]: 100 to 1000 nM; IC50 [2, 10]: > 5000 nM
≤ 100	≤ 100	CCn1nccc1-c1cccc(C2(CC)C3=C(CC(C)(C)CC3=O)Nc3n[nH]cc32)c1 (centres unmarked) [Compound 929398]	–
≤ 100	≤ 100	CCC1(c2cccc(-c3ccnn3C(C)C)c2)C2=C(CC(C)(C)CC2=O)Nc2n[nH]cc21 (centres unmarked) [Compound 929399]	–
≤ 100	≤ 100	CCC1(c2cccc(-c3ccnn3CCC(C)C)c2)C2=C(CC(C)(C)CC2=O)Nc2n[nH]cc21 (centres unmarked) [Compound 929401]	–
≤ 100	100 to 1000	CCC1(c2cccc(-c3cc(C)nn3C)c2)C2=C(CC(C)(C)CC2=O)Nc2n[nH]cc21 (centres unmarked) [Compound 929402]	–
> 5000	> 5000	CC1(C)CC(=O)C2=C(C1)Nc1n[nH]cc1C21CN(Cc2ccccc2)C1 [Compound 929436]	–
–	–	CC1(C)CC(=O)C2=C(C1)Nc1n[nH]cc1C21CCN(S(=O)(=O)Cc2ccccc2)CC1 [Compound 929437]	IC50 [1, 7]: ≤ 100 nM; IC50 ([1]; GSK3-A (TR-FRET 1 mM ATP), GMean, IC50, 1 mM ATP, geometric mean): ≤ 100 nM; IC50 [2, 8]: ≤ 100 nM; IC50 ([2]; GSK3-B (TR-FRET 1 mM ATP), GMean, IC50, 1 mM ATP, geometric mean): 100 to 1000 nM
> 5000	> 5000	CC1(C)CC(=O)C2=C(C1)Nc1n[nH]cc1C21CN(Cc2ccccn2)C1 [Compound 929438]	–
> 5000	> 5000	Cn1cc(CN2CC3(C2)C2=C(CC(C)(C)CC2=O)Nc2n[nH]cc23)cn1 [Compound 929439]	–
–	–	CC1(C)CC(=O)C2=C(C1)Nc1n[nH]cc1C21CN(S(=O)(=O)CC2CC2)C1 [Compound 929440]	IC50 [1, 5]: ≤ 100 nM; IC50 [2, 6]: ≤ 100 nM
> 5000	> 5000	CC1(C)CC(=O)C2=C(C1)Nc1n[nH]cc1C21CN(CCc2ccccc2)C1 [Compound 929441]	–
≤ 100	100 to 1000	CC[C@]1(c2cccc(N(C)C(=O)c3ccn(C)n3)c2)C2=C(CC(C)(C)CC2=O)Nc2n[nH]cc21 [Compound 929442]	–
> 5000	> 5000	CC[C@@]1(c2cccc(-c3ccnnc3)c2)C2=C(CC(C)(C)CC2=O)Nc2n[nH]cc21 [Compound 929443]	–
1000 to 5000	> 5000	CCc1cc(-c2cccc(C3(CC)C4=C(CC(C)(C)CC4=O)Nc4n[nH]cc43)c2)cc(CC)n1 (centres unmarked) [Compound 929445]	–
1000 to 5000	1000 to 5000	CC1(C)CC(=O)C2=C(C1)Nc1n[nH]cc1C21CN(C2CCCCC2)C1 [Compound 929446]	–
–	–	CCCS(=O)(=O)c1cccc(C2(CC)C3=C(CC(C)(C)CC3=O)Nc3n[nH]cc32)c1 (centres unmarked) [Compound 929447]	IC50 [1, 9]: ≤ 100 nM; IC50 [2, 10]: 100 to 1000 nM
> 5000	> 5000	CCN1CC2(C1)C1=C(CC(C)(C)CC1=O)Nc1n[nH]cc12 [Compound 929448]	–
1000 to 5000	1000 to 5000	CCC1(c2cccc(N3CCc4cnccc4C3)c2)C2=C(CC(C)(C)CC2=O)Nc2n[nH]cc21 (centres unmarked) [Compound 929449]	–
> 5000	> 5000	CC[C@]1(c2cc(N(C)C(C)=O)ccc2F)C2=C(CC(C)(C)CC2=O)Nc2n[nH]c(C)c21 [Compound 929451]	–
1000 to 5000	> 5000	CC[C@]1(c2cccc(N(C)c3ccnc(F)c3)c2)C2=C(CC(C)(C)CC2=O)Nc2n[nH]cc21 [Compound 929453]	–
≤ 100	≤ 100	CC[C@]1(c2cccc(-c3ccnnc3)c2)C2=C(CC(C)(C)CC2=O)Nc2n[nH]cc21 [Compound 929454]	IC50 [1, 9]: 100 to 1000 nM; IC50 [2, 10]: 1000 to 5000 nM
> 5000	> 5000	CC[C@@]1(c2cccc(N(C)C(=O)c3ccn(C)n3)c2)C2=C(CC(C)(C)CC2=O)Nc2n[nH]cc21 [Compound 929455]	–
–	–	CCC1(c2cccc(C(F)(F)F)c2)C2=C(CCN(c3ccccc3)C2=O)Nc2n[nH]cc21 (centres unmarked) [Compound 929474]	IC50 [1, 7]: ≤ 100 nM; IC50 [2, 8]: 100 to 1000 nM
–	–	CC[C@]1(c2cccc(C(F)(F)F)c2)C2=C(CCN(c3ccccc3)C2=O)Nc2n[nH]cc21 [Compound 929475]	IC50 [1, 7]: > 5000 nM; IC50 [2, 8]: > 5000 nM
–	–	CC[C@@]1(c2cccc(C(F)(F)F)c2)C2=C(Nc3n[nH]cc31)[C@@H](C)N(Cc1ccccc1)C2=O [Compound 930330]	IC50 [1, 7]: ≤ 100 nM; IC50 [2, 8]: 100 to 1000 nM

Reference: patent publication US20250313563A1, “GLYCOGEN SYNTHASE KINASE 3 INHIBITORS AND USES THEREOF” (The Broad Institute, Inc., priority 2022, published 2025)
